Assay results: patent publication US5043450A, “8-alkoxyquinolonecarboxylic acid and salts thereof” (priority 1986, dated 1991)
Where two headings read alike, the source gives them in different places.

Legend:
Assay type in all cases: cell-based
[1] = test system: Bacilus subtilis PCI 219; assay: Antibacterial spectra, MIC; conditions: Bacillus subtilis, PCI219
[2] = test system: Staphylococcus aureus 209 P; assay: Antibacterial spectra, MIC
[3] = test system: S. aureus IID 670 (Terajima); assay: Antibacterial spectra, MIC; conditions: Staphylococcus aureus, IID670
[4] = test system: S. aureus Smith; assay: Antibacterial spectra, MIC; conditions: Staphylococcus aureus
[5] = test system: E. coli ML 4707; assay: Antibacterial spectra, MIC; conditions: Escherichia coli, ML4707; 10^6 cells/ml; Gram -
Protocol: (§1) The antibacterial test was carried out according to the method designated by Japan Society of Chemotherapy.

[6] = test system: E. faecalis IID 682; assay: Antibacterial spectra, MIC; conditions: Enterococcus faecalis, IID682; 10^6 cells/ml; Gram +
Protocol: as §1

[7] = test system: Proteus vulgaris IFO 3167; assay: Antibacterial spectra, MIC; conditions: IFO3167, 10^6 cells/ml, Gram -
Protocol: as §1

[8] = test system: Shigella sonnei IID 969; assay: Antibacterial spectra, MIC; conditions: IID969, 10^6 cells/ml, Gram -
Protocol: as §1

[9] = test system: Streptococcus pyogenes (S-8); assay: Antibacterial spectra, MIC; conditions: 10^6 cells/ml, Gram +
Protocol: as §1

[10] = test system: S. pyogenes IID 692; assay: Antibacterial spectra, MIC; conditions: Streptococcus pyogenes, IID692
[11] = test system: S. pneumoniae IID 552; assay: Antibacterial spectra, MIC; conditions: Streptococcus pneumoniae, IID552
[12] = test system: Escherichia coli NIHJ JC-2; assay: Antibacterial spectra, MIC; conditions: NIHJJC2
[13] = test system: E. coli ATCC 10536; assay: Antibacterial spectra, MIC; conditions: Escherichia coli, ATCC10536
[14] = test system: P. mirabilis IID 994; assay: Antibacterial spectra, MIC; conditions: Proteus mirabilis, IID994
[15] = test system: Morganella morganii IID 602; assay: Antibacterial spectra, MIC; conditions: IID602
[16] = test system: Klebsiella pneumoniae KY(GN)6445; assay: Antibacterial spectra, MIC
[17] = test system: K. pneumoniae 1-220S; assay: Antibacterial spectra, MIC; conditions: Klebsiella pneumoniae, 1220S
[18] = test system: Enterobacter cloacae IID 977; assay: Antibacterial spectra, MIC; conditions: IID977
[19] = test system: Citrobacter freundii IID 976; assay: Antibacterial spectra, MIC
[20] = test system: Serratia marcescens IID 618; assay: Antibacterial spectra, MIC; conditions: IID618
[21] = test system: Salmonella enteritidis IID 604; assay: Antibacterial spectra, MIC; conditions: Salmonella enterica
[22] = test system: Pseudomonas aeruginosa V-1; assay: Antibacterial spectra, MIC; conditions: V1
[23] = test system: P. aeruginosa IFO 12689; assay: Antibacterial spectra, MIC; conditions: Pseudomonas aeruginosa, IFO12689
[24] = test system: P. aeruginosa IID 1210; assay: Antibacterial spectra, MIC; conditions: Pseudomonas aeruginosa, IID1210; 10^6 cells/ml; Gram -; read-out: MIC
[25] = test system: P. cepacia GIFU 518; assay: Antibacterial spectra, MIC; conditions: Burkholderia cepacia, GIFU518
[26] = test system: P. maltophilia GIFU 2491; assay: Antibacterial spectra, MIC; conditions: Stenotrophomonas maltophilia, GIFU2491
[27] = test system: Yersinia enterocolitica IID 981; assay: Antibacterial spectra, MIC; conditions: IID981
[28] = test system: Acinetobacter anitratus IID 876; assay: Antibacterial spectra, MIC; conditions: Acinetobacter calcoaceticus, IID876
[29] = test system: Alcaligenes faecalis 0114002; assay: Antibacterial spectra, MIC
[30] = test system: Bacteroides fragilis GM 7000; assay: Antibacterial spectra, MIC
[31] = test system: B. fragilis 0558; assay: Antibacterial spectra, MIC; conditions: Bacteroides fragilis
[32] = test system: B. fragilis 25285; assay: Antibacterial spectra, MIC; conditions: Bacteroides fragilis
[33] = test system: B. distasonis 8503; assay: Antibacterial spectra, MIC; conditions: Parabacteroides distasonis
[34] = test system: B. thetaiotaomicron (0661); assay: Antibacterial spectra, MIC; conditions: Bacteroides thetaiotaomicron
[35] = test system: B. vulgatus KYA 29327; assay: Antibacterial spectra, MIC; conditions: Phocaeicola vulgatus, KYA29327
[36] = test system: Fusobacterium mortiferum 4249; assay: Antibacterial spectra, MIC
[37] = test system: F. necrophorum S-45; assay: Antibacterial spectra, MIC; conditions: Fusobacterium necrophorum, S45
[38] = test system: F. varium KYA 8501; assay: Antibacterial spectra, MIC; conditions: Fusobacterium varium, KYA8501
[39] = test system: Eubacterium lentum GAI 5242; assay: Antibacterial spectra, MIC; conditions: Eggerthella lenta, GAI5242
[40] = test system: Propionibacterium acens 11828; assay: Antibacterial spectra, MIC
[41] = test system: Peptococcus magnus KY 017; assay: Antibacterial spectra, MIC; conditions: Finegoldia magna, KY017
[42] = test system: C. perfringens KYA 13123; assay: microbe, parasite or virus in culture; conditions: Clostridium perfringens, KYA13123
[43] = test system: C. ramosum; assay: Antibacterial spectra, MIC; conditions: Thomasclavelia ramosa
[44] = test system: Peptostreptococcus anaerobius KYA 27337; assay: Antibacterial spectra, MIC
[45] = test system: Pst. micros UPI 5464-1; assay: Antibacterial spectra, MIC; conditions: Parvimonas micra, UPI54641
[46] = test system: Veillonella parvula KYA 10790; assay: Antibacterial spectra, MIC; conditions: KYA10790
[47] = test system: S. epidermidis IID 866; assay: Antibacterial spectra, MIC; conditions: Staphylococcus epidermidis, IID866
[48] = 10^6 cells/ml, Gram -, read-out: MIC
[49] = 10^6 cells/ml, Gram +, read-out: MIC

Measured: MIC

COc1c(N2CCNCC2)c(F)c(N)c2c(=O)c(C(=O)O)cn(C3CC3)c12 [Exp. 10, 5-amino-1-cyclopropyl-6-fluoro-1,4-dihydro-8-methoxy-4-oxo-7-(1-piperazinyl)-3-quinolinecarboxylic acid]
12.5 mg/L: [40]; [49]
0.78 mg/L: [29] | [39]
0.39 mg/L: [6] | [9] | [22] | [35] | [45] | [46]
50 mg/L: [38]; [48]
0.2 mg/L: [14] | [15] | [17] | [18] | [20] | [21] | [26] | [27]
3.13 mg/L: [30]; GM7000 | [31] | [32] | [42]
0.05 mg/L: [2] | [5] | [13] | [16] | [19]; IID976
6.25 mg/L: [33]; [48] | [34]; [48]
0.025 mg/L: [1] | [8] | [12]
> 0.78 mg/L: [10] | [11]
0.1 mg/L: [3] | [4] | [7] | [28]
1.56 mg/L: [23]; [48] | [24] | [25]; [48] | [36]; [48] | [37]; [48] | [41]; [49] | [43]; [49] | [44]; KYA27337, 10^6 cells/ml, Gram +, read-out: MIC

CNCC1CCN(c2c(F)cc3c(=O)c(C(=O)O)cn(C4CC4)c3c2OC)C1 (stereo not drawn) [Exp. 8, 1-cyclopropyl-6-fluoro-1,4-dihydro-8-methoxy-7-(3-methylaminomethyl-1-pyrrolidinyl)-4-oxo-3-quinolinecarboxylic acid]
0.39 mg/L: [15] | [26] | [30]; GM7000 | [31] | [32] | [36] | [37] | [43] | [45] | [46]
≤ 0.05 mg/L: [41]
3.13 mg/L: [23] | [33] | [34] | [35] | [38]
0.78 mg/L: [22] | [40]
12.5 mg/L: [24]
0.025 mg/L: [1] | [12]
0.1 mg/L: [17] | [21] | [27]
0.2 mg/L: [18] | [20] | [28] | [39] | [42] | [44]; KYA27337
1.56 mg/L: [25]; [48] | [29]; [48]
0.05 mg/L: [2] | [3] | [4] | [47] | [5] | [6] | [7] | [8] | [9] | [10] | [11] | [13] | [14] | [16] | [19]; IID976

COc1c(N2CCC(N)C2)c(F)c(N)c2c(=O)c(C(=O)O)cn(C3CC3)c12 (stereo not drawn) [Exp. 11, 5-amino-7-(3-amino-1-pyrrolidinyl)-1-cyclopropyl-6-fluoro-1,4-dihydro-8-methoxy-4-oxo-3-quinolinecarboxylic acid]
0.05 mg/L: [3] | [16] | [18] | [19]; IID976 | [28]
0.025 mg/L: [2] | [4] | [5] | [8] | [12] | [13]
0.0125 mg/L: [1]
25 mg/L: [38]; [48]
0.1 mg/L: [14] | [21] | [27]
3.13 mg/L: [36]
0.78 mg/L: [22] | [29] | [35] | [41] | [42] | [44]; KYA27337 | [45] | [46]
0.2 mg/L: [6] | [7] | [9] | [11] | [15] | [17] | [20] | [26]
0.39 mg/L: [10] | [39]
1.56 mg/L: [23]; [48] | [24] | [25]; [48] | [30]; GM7000, 10^6 cells/ml, Gram -, read-out: MIC | [31]; [48] | [32]; [48] | [34]; [48] | [37]; [48] | [43]; [49]
12.5 mg/L: [33]; [48]
6.25 mg/L: [40]; [49]

CCNCC1CCN(c2c(F)cc3c(=O)c(C(=O)O)cn(C4CC4)c3c2OC)C1 (stereo not drawn) [Exp. 9, 1-cyclopropyl-7-(3-ethylaminomethyl-1-pyrrolidinyl)-6-fluoro-1,4-dihydro-8-methoxy-4-oxo-3-quinolinecarboxylic acid]
0.1 mg/L: [17] | [18] | [20] | [27] | [30]; GM7000 | [31] | [32] | [39]
0.05 mg/L: [6] | [10] | [16] | [21] | [28]
0.2 mg/L: [15] | [26] | [36] | [37] | [43]
0.0125 mg/L: [2] | [3] | [4]
0.025 mg/L: [47] | [5] | [7] | [8] | [9] | [11] | [13] | [14]
0.78 mg/L: [25] | [29] | [33] | [34]
1.56 mg/L: [23]; [48] | [38]; [48] | [40]; [49]
0.055 mg/L: [19]; IID976, 10^6 cells/ml, Gram -, read-out: MIC
≤ 0.05 mg/L: [41] | [42] | [44]; KYA27337
0.39 mg/L: [22] | [35] | [45] | [46]
6.25 mg/L: [24]
0.0063 mg/L: [1] | [12]
